Species on record: Rattus norvegicus
Test: Open TG-GATES - Regimen: Single
Format: toxicity, organism-based, Sprague-Dawley
Set-up: regimen Single, gender Male, age 6 weeks
Conditions: in vivo, po, 100 mg/kg, route gavage, dose level Middle; for APTT / Bas / Eos / Fbg / Hb / Ht / Lym / MCH / MCHC / MCV / Mono / Neu / PT / Plat / RBC / Ret / WBC: tissue Blood; for KIDNEY_L / KIDNEY_R / KIDNEY_TOTAL: tissue Kidney; for LIVER: tissue Liver; for A/G / ALP / ALT / AST / BUN / CRE / Ca / Cl / DBIL / GLC / IP / K / LDH / Na / PL / RALB / TBIL / TC / TG / TP / gamma-GTP: tissue Plasma

NC(=O)N/N=C/c1ccc([N+](=O)[O-])o1 [NITROFURAZONE]
TERMINAL_BW (3 h): 183.7 g
APTT (3 h): 16.6 s
Bas (3 h): 0.2%
Eos (3 h): 1%
Fbg (3 h): 235.8 mg/dL
Hb (3 h): 12.4 g/dL
Ht (3 h): 38.5%
Lym (3 h): 73.4%
MCH (3 h): 21.7 pg
MCHC (3 h): 32.3%
MCV (3 h): 67.2 fL
Mono (3 h): 5.2%
Neu (3 h): 19.6%
PT (3 h): 14.8 s
Plat (3 h): 123.7 x10_4/uL
RBC (3 h): 572.4 x10_4/ul
Ret (3 h): 11.4%
WBC (3 h): 71.3 x10_2/uL
KIDNEY_L (3 h): 0.8 g
KIDNEY_R (3 h): 0.8 g
KIDNEY_TOTAL (3 h): 1.6 g
LIVER (3 h): 7.7 g
A/G (3 h): 0.9
ALP (3 h): 1361.8 IU/L
ALT (3 h): 41.2 IU/L
AST (3 h): 74.8 IU/L
BUN (3 h): 11.8 mg/dL
CRE (3 h): 0.2 mg/dL
Ca (3 h): 11.3 mg/dL
Cl (3 h): 104.8 meq/L
DBIL (3 h): 0.006 mg/dL
GLC (3 h): 177.6 mg/dL
IP (3 h): 8.8 mg/dL
K (3 h): 4.3 meq/L
LDH (3 h): 51.6 IU/L
Na (3 h): 140.8 meq/L
PL (3 h): 127.6 mg/dL
RALB (3 h): 2.4 g/dL
TBIL (3 h): 0.06 mg/dL
TC (3 h): 73.4 mg/dL
TG (3 h): 29.8 mg/dL
TP (3 h): 5.2 g/dL
gamma-GTP (3 h): 1.2 IU/L
TERMINAL_BW (6 h): 182.2 g
APTT (6 h): 16 s
Bas (6 h): 0%
Eos (6 h): 1%
Fbg (6 h): 272.8 mg/dL
Hb (6 h): 12.8 g/dL
Ht (6 h): 40%
Lym (6 h): 71.2%
MCH (6 h): 21.3 pg
MCHC (6 h): 32%
MCV (6 h): 66.4 fL
Mono (6 h): 3.2%
Neu (6 h): 23.8%
PT (6 h): 14.6 s
Plat (6 h): 112.7 x10_4/uL
RBC (6 h): 602 x10_4/ul
Ret (6 h): 10.1%
WBC (6 h): 85.4 x10_2/uL
KIDNEY_L (6 h): 0.8 g
KIDNEY_R (6 h): 0.8 g
KIDNEY_TOTAL (6 h): 1.7 g
LIVER (6 h): 7.3 g
A/G (6 h): 0.9
ALP (6 h): 1451.4 IU/L
ALT (6 h): 41.4 IU/L
AST (6 h): 74 IU/L
BUN (6 h): 8.6 mg/dL
CRE (6 h): 0.2 mg/dL
Ca (6 h): 11.3 mg/dL
Cl (6 h): 105.2 meq/L
DBIL (6 h): 0.01 mg/dL
GLC (6 h): 162.4 mg/dL
IP (6 h): 9.8 mg/dL
K (6 h): 3.8 meq/L
LDH (6 h): 85.8 IU/L
Na (6 h): 142.4 meq/L
PL (6 h): 146.6 mg/dL
RALB (6 h): 2.4 g/dL
TBIL (6 h): 0.072 mg/dL
TC (6 h): 89.4 mg/dL
TG (6 h): 25.8 mg/dL
TP (6 h): 5.2 g/dL
gamma-GTP (6 h): 1.2 IU/L
TERMINAL_BW (9 h): 176.6 g
APTT (9 h): 15.8 s
Bas (9 h): 0%
Eos (9 h): 1%
Fbg (9 h): 270.8 mg/dL
Hb (9 h): 13.5 g/dL
Ht (9 h): 41.4%
Lym (9 h): 72.5%
MCH (9 h): 21.6 pg
MCHC (9 h): 32.4%
MCV (9 h): 66.6 fL
Mono (9 h): 2.8%
Neu (9 h): 22.8%
PT (9 h): 14.8 s
Plat (9 h): 103.9 x10_4/uL
RBC (9 h): 622.2 x10_4/ul
Ret (9 h): 10.2%
WBC (9 h): 69.6 x10_2/uL
KIDNEY_L (9 h): 0.8 g
KIDNEY_R (9 h): 0.8 g
KIDNEY_TOTAL (9 h): 1.6 g
LIVER (9 h): 7.2 g
A/G (9 h): 0.9
ALP (9 h): 1273.8 IU/L
ALT (9 h): 39 IU/L
AST (9 h): 74.5 IU/L
BUN (9 h): 9 mg/dL
CRE (9 h): 0.2 mg/dL
Ca (9 h): 10.9 mg/dL
Cl (9 h): 104.5 meq/L
DBIL (9 h): 0.0175 mg/dL
GLC (9 h): 165 mg/dL
IP (9 h): 11.4 mg/dL
K (9 h): 4 meq/L
LDH (9 h): 69.2 IU/L
Na (9 h): 142.2 meq/L
PL (9 h): 149.5 mg/dL
RALB (9 h): 2.4 g/dL
TBIL (9 h): 0.0675 mg/dL
TC (9 h): 83.5 mg/dL
TG (9 h): 38.8 mg/dL
TP (9 h): 5.1 g/dL
gamma-GTP (9 h): 1.2 IU/L
TERMINAL_BW (24 h): 185.1 g
APTT (24 h): 15.7 s
Bas (24 h): 0%
Eos (24 h): 0.6%
Fbg (24 h): 296 mg/dL
Hb (24 h): 13.1 g/dL
Ht (24 h): 40.5%
Lym (24 h): 83.4%
MCH (24 h): 21.8 pg
MCHC (24 h): 32.4%
MCV (24 h): 67.2 fL
Mono (24 h): 3%
Neu (24 h): 12.2%
PT (24 h): 14.8 s
Plat (24 h): 109 x10_4/uL
RBC (24 h): 602 x10_4/ul
Ret (24 h): 9.3%
WBC (24 h): 90.2 x10_2/uL
KIDNEY_L (24 h): 0.8 g
KIDNEY_R (24 h): 0.8 g
KIDNEY_TOTAL (24 h): 1.7 g
LIVER (24 h): 8.6 g
A/G (24 h): 0.9
ALP (24 h): 1441.6 IU/L
ALT (24 h): 44.6 IU/L
AST (24 h): 78.4 IU/L
BUN (24 h): 14 mg/dL
CRE (24 h): 0.2 mg/dL
Ca (24 h): 11 mg/dL
Cl (24 h): 103.6 meq/L
DBIL (24 h): 0.016 mg/dL
GLC (24 h): 168.8 mg/dL
IP (24 h): 8.5 mg/dL
K (24 h): 4 meq/L
LDH (24 h): 71.6 IU/L
Na (24 h): 140.6 meq/L
PL (24 h): 140.6 mg/dL
RALB (24 h): 2.5 g/dL
TBIL (24 h): 0.058 mg/dL
TC (24 h): 77.6 mg/dL
TG (24 h): 73.8 mg/dL
TP (24 h): 5.4 g/dL
gamma-GTP (24 h): 1 IU/L
